The values that follow come from patent publication US5457119A, “A89271 factors and processes for their production” (priority 1994, dated 1995).

≈ marks a conversion by molar mass, not a printed value.

What all share (type): cell-based
Assay [1] relates to Candida albicans. Put plainly: In vitro antifungal activity, Sabouraud's and Dextrose broth. From the text:
(§1) In those tables, a dash or "N.T." means the material was not tested.

Assay [2] concerns Aspergillus fumigatus. The assay is described as above.
Excerpt: as §1

Assay [3] has as its system Trichophyton mentagrophytes. The description is as above.
Excerpt: as §1

For assay [4], the system named is Candida albicans. Kind of assay: In vitro antifungal activity, RPMI and 10% fetal calf serum broth.
Excerpt: as §1

Assay [5] concerns Trichophyton mentagrophytes. Described as above.
Excerpt: as §1

For assay [6], the system named is P03 murine pancreatic solid tumor cell line. Kind of assay: Disk diffusion soft agar colony formation assay. Particulars: 200 zone units = 6 MM. On the procedure:
(§2) The method of performing the disk diffusion soft agar colony […] assay is described in Chapter 3 of Cytotoxic Anticancer Drugs: Models and Concepts for Drug Discovery and Development (Frederick A. Valeriote, et al., eds., 1990). In addition to the procedure taught in this reference, one mL ethanol was added to each dry factor in a vial, and the desired concentration of solution was placed on a paper disk. The disk was dried and then placed on soft agar plates as described in the reference.
P03 = murine pancreatic solid tumor cell line
(§3) ^2 Measurement in zone units; 200 zone units = 6 MM
In general terms: A growth-free zone around the sample is the usual read-out of agar diffusion tests.

Assay [7] concerns Candida albicans. Put plainly: In vitro antifungal activity, Antibiotic 3 broth (Difco). The settings on record: Table 7.
Excerpt: as §1

Assay [8] has as its system Aspergillus fumigatus. Described as above. Particulars: Table 7.
Excerpt: as §1

Assay [9] deals with Trichophyton mentagrophytes. Described as above.
Excerpt: as §1

In assay [10] the test system is H8 human colon solid tumor cell line. Put plainly: Disk diffusion soft agar colony formation assay. The settings on record: 200 zone units = 6 MM. On the procedure:
as §2
H8 = human colon solid tumor cell line
as §3

The test system of assay [11] is Mam17 murine mammary solid tumor cell line. Put plainly: Disk diffusion soft agar colony formation assay. The settings on record: 200 zone units = 6 MM. As to the method: as §2
Mam17 = murine mammary solid tumor cell line
as §3

The test system of assay [12] is L1210 murine leukemia cell line. Put plainly: Disk diffusion soft agar colony formation assay. Particulars: 200 zone units = 6 MM. On the procedure: as §2
L1210 = murine leukemia cell line
as §3

Assay [13] deals with LML "Low Malignancy Line" fibroblast. Kind of assay: Disk diffusion soft agar colony formation assay. The settings on record: 200 zone units = 6 MM. As to the method: as §2
LML = "Low Malignancy Line" fibroblast
as §3

Assay [14] concerns Aspergillus fumigatus. Put plainly: In vitro antifungal activity, RPMI and 10% fetal calf serum broth. The settings on record: Table 5.
Excerpt: as §1

The subject of assay [15] is C38 murine colon solid tumor cell line. Kind of assay: Disk diffusion soft agar colony formation assay. Particulars: 200 zone units = 6 MM. On the procedure: as §2
C38 = murine colon solid tumor cell line
as §3

[16] abbreviates: Table 3, RPMI & 10% Fetal Calf Serum Broth.
[17] abbreviates: unlabelled line below the (80 ug) line.
Setting [18] is: Table 5, RPMI and 10% Fetal Calf Serum Broth.

Turning to `[C-]#[N+]C1C(C)(C=C)C(Cl)CC2C(C)(C)c3cccc4[nH]c(C(C)(C)C=C)c(c34)C21O` (stereo not shown) [A89271 C], the MIC in the assay on Candida albicans [1] (Table 4) was 2.5 mg/L (≈ 5.91 µM); in the assay with Aspergillus fumigatus [2] (Table 4), more than 80 mg/L; in assay [3] (Table 4), more than 80 mg/L; in the assay with Candida albicans [4] (setting [16]), 1.25 mg/L (≈ 2.96 µM); in assay [5] (setting [16]), 0.625 mg/L (≈ 1.48 µM).

With `[C-]#[N+]C12C(O)C(O)C(C)(C)c3[nH]c4cccc5c4c3C1(O)C(CC(Cl)C2(C)C=C)C5(C)C` (stereo not shown) [A89271 D], the MIC was 1.25 mg/L (≈ 2.75 µM) in the assay with Candida albicans [1] (Table 4); more than 80 mg/L against Aspergillus fumigatus [2] (Table 4); more than 80 mg/L in [3] (Table 4); 1.25 mg/L (≈ 2.75 µM) in the assay on Candida albicans [4] (setting [16]); 0.625 mg/L (≈ 1.37 µM) in [5] (setting [16]).

For the compound `[C-]#[N+]C1C(C)(C=C)CCC2C(C)(C)c3cccc4[nH]c(C(C)(C)C=C)c(c34)C12O` (stereo not shown) [A89271 E], the “Measurement in zone units” value is recorded as 440-500 zone units in [6] (80 ug per disk); 460 zone units in [6] (setting [17]); 100-180 zone units in assay [10] (20 ug per disk); 220-240 zone units in assay [10] (80 ug per disk); 350 zone units in assay [11] (factor line, no dose given); 100-200 zone units in assay [12] (20 ug per disk). The “Measurement in zone units” value in [12] (80 ug per disk) is given as 250-300 zone units; in assay [12] (factor line, no dose given) it was 280 zone units; in assay [12] (setting [17]) it was 200-220 zone units; in assay [13] (20 ug per disk), 80 zone units; in assay [13] (80 ug per disk) it was 100-180 zone units; in [15] (20 ug per disk) it was 300-360 zone units. Also, the “Measurement in zone units” value in [15] (factor line, no dose given) was 300 zone units; in assay [15] (setting [17]) it was 480-500 zone units. In addition, the MIC with Candida albicans [7] was 5.0 mg/L (≈ 12.9 µM); in the assay on Aspergillus fumigatus [8], more than 80 mg/L; in [9] (Table 7), 5.0 mg/L (≈ 12.9 µM); with Candida albicans [1] (Table 6), 5 mg/L (≈ 12.9 µM); in the assay with Aspergillus fumigatus [2] (Table 6) it was more than 80 mg/L; in [3] (Table 6), 2.5 mg/L (≈ 6.43 µM). Besides, the MIC was 2.5 mg/L (≈ 6.43 µM) in the assay on Candida albicans [4] (setting [18]), more than 80 mg/L in the assay on Aspergillus fumigatus [14] and 2.5 mg/L (≈ 6.43 µM) in [5] (setting [18]).

Take `[C-]#[N+]C12C3OC3C(C)(C)c3[nH]c4cccc5c4c3C1(O)C(CC(Cl)C2(C)C=C)C5(C)C` (stereo not shown) [A89271 F]: the “Measurement in zone units” value in [6] (16 ug per disk) was 440 zone units; in assay [6] (factor line, no dose given), 500 zone units; in [10] (16 ug per disk), 200-330 zone units; in [10] (20 ug per disk) it was 200-350 zone units; in [10] (80 ug per disk) it was 200-400 zone units; in [10] (factor line, no dose given) it was 200-300 zone units. The “Measurement in zone units” value is 250 zone units in assay [11] (8 ug per disk); 250-280 zone units in assay [12] (8 ug per disk); 0-220 zone units in [12] (16 ug per disk); 300-350 zone units in [12] (20 ug per disk); 350-460 zone units in [12] (80 ug per disk); 200-250 zone units in [12] (factor line, no dose given). Besides, the “Measurement in zone units” value was 0-400 zone units in [13] (8 ug per disk); 0-80 zone units in [13] (20 ug per disk); 0-120 zone units in assay [13] (80 ug per disk); 460 zone units in assay [15] (16 ug per disk); 590 zone units in [15] (20 ug per disk); 550-580 zone units in assay [15] (80 ug per disk). In addition, in assay [15] (factor line, no dose given), the “Measurement in zone units” value turned out to be 500 zone units. Besides, the minimum inhibitory concentration (MIC) was 1.25 mg/L (≈ 2.86 µM) in the assay with Candida albicans [1] (Table 4); more than 80 mg/L with Aspergillus fumigatus [2] (Table 4); more than 80 mg/L in [3] (Table 4); 1.25 mg/L (≈ 2.86 µM) against Candida albicans [4] (setting [16]); 1.25 mg/L (≈ 2.86 µM) in assay [5] (setting [16]).

In the case of `[C-]#[N+]C12C3OC3C(C)(C)c3[nH]c4cccc5c4c3C1(O)C(CCC2(C)C=C)C5(C)C` (stereo not shown) [A89271 I], the “Measurement in zone units” value in assay [6] (16 ug per disk) is listed as 420 zone units; in [6] (80 ug per disk), 490 zone units; in assay [10] (16 ug per disk), 120 zone units; in [10] (20 ug per disk), 100-180 zone units; in assay [11] (factor line, no dose given) it was 250 zone units; in assay [12] (16 ug per disk), 110 zone units. For the same compound, the “Measurement in zone units” value is 100-250 zone units in assay [12] (20 ug per disk); 200-220 zone units in assay [12] (80 ug per disk); 260 zone units in assay [12] (factor line, no dose given); 0-180 zone units in assay [13] (20 ug per disk); 100-200 zone units in assay [13] (80 ug per disk); 0-200 zone units in [13] (factor line, no dose given). The results for the “Measurement in zone units” value in assay [15] (16 ug per disk), in assay [15] (20 ug per disk) and in assay [15] (80 ug per disk) were 390 zone units, 680 zone units and 500 zone units, respectively. Also, the minimum inhibitory concentration (MIC) with Candida albicans [7] is 1.25 mg/L (≈ 3.11 µM); in the assay with Aspergillus fumigatus [8] it was more than 80 mg/L; in assay [9] (Table 7) it was 5.0 mg/L (≈ 12.4 µM); against Candida albicans [1] (Table 6) it was 2.5 mg/L (≈ 6.21 µM); in the assay on Aspergillus fumigatus [2] (Table 6), more than 80 mg/L; in assay [3] (Table 6), 2.5 mg/L (≈ 6.21 µM). In addition, the minimum inhibitory concentration (MIC) in the assay on Candida albicans [4] (setting [18]) is 1.25 mg/L (≈ 3.11 µM); in the assay on Aspergillus fumigatus [14] it was more than 80 mg/L; in [5] (setting [18]), 2.5 mg/L (≈ 6.21 µM).

As for `C[C@@H]1[C@H](O)[C@@H](C)/C=C/C=C/C=C/C=C/C=C/C=C/C=C/[C@H](O[C@@H]2O[C@H](C)[C@@H](O)[C@H](N)[C@@H]2O)C[C@@H]2O[C@](O)(C[C@@H](O)C[C@@H](O)[C@H](O)CC[C@@H](O)C[C@@H](O)CC(=O)O[C@H]1C)C[C@H](O)[C@H]2C(=O)O` [Amphotericin B, reference compound], the MIC with Candida albicans [7] stood at 0.02 mg/L (≈ 0.0216 µM); in the assay on Aspergillus fumigatus [8], 0.039 mg/L (≈ 0.0422 µM); against Candida albicans [1] (Table 2) it was 0.625 mg/L (≈ 0.676 µM); against Candida albicans [1] (Table 4), 0.312 mg/L (≈ 0.338 µM); in the assay on Candida albicans [1] (Table 6) it was 0.312 mg/L (≈ 0.338 µM); against Aspergillus fumigatus [2] (Table 2), 1.25 mg/L (≈ 1.35 µM). Besides, the minimal inhibitory concentration (MIC) against Aspergillus fumigatus [2] (Table 4) turned out to be 1.25 mg/L (≈ 1.35 µM); in the assay on Aspergillus fumigatus [2] (Table 6), 5.0 mg/L (≈ 5.41 µM); with Candida albicans [4] (Table 1, RPMI and 10% Fetal Calf Serum Broth) it was 0.156 mg/L (≈ 0.169 µM); with Candida albicans [4] (setting [16]), 0.156 mg/L (≈ 0.169 µM); against Candida albicans [4] (setting [18]), 0.625 mg/L (≈ 0.676 µM); against Aspergillus fumigatus [14], 1.25 mg/L (≈ 1.35 µM).

Turning to `Cc1cccc(N(C)C(=S)Oc2ccc3ccccc3c2)c1` [Tolnaftate, reference compound], the MIC in assay [9] (Table 7, read-out: MIC) is 0.02 mg/L (≈ 0.0651 µM); in assay [3] (Table 2, read-out: MIC), 0.039 mg/L (≈ 0.127 µM); in [3] (Table 4, read-out: MIC), less than 0.02 mg/L; in assay [3] (Table 6, read-out: MIC) it was 0.02 mg/L (≈ 0.0651 µM); in assay [5] (Table 1, RPMI and 10% Fetal Calf Serum Broth, read-out: MIC), 0.039 mg/L (≈ 0.127 µM); in assay [5] (Table 3, RPMI & 10% Fetal Calf Serum Broth, read-out: MIC), less than 0.02 mg/L. Also, the minimal inhibitory concentration (MIC) in [5] (Table 5, RPMI and 10% Fetal Calf Serum Broth, read-out: MIC) came to 0.02 mg/L (≈ 0.0651 µM).

One may read the MIC as the lowest concentration that inhibits growth of the organism.
